According to patent US20240208992A1, “MACROCYCLES AS CFTR MODULATORS” (Idorsia Pharmaceuticals Ltd, priority 2021, published 2024):
Where two headings read alike, the source gives them in different places.

Tests used:
[1] = the molecule shown is the open-chain precursor; amide bond; 17-membered ring; 2 steps
[2] = amide bond
[3] = amide bond, 17-membered ring
[4] = biological target: human F508del-CFTR (Homo sapiens, UniProt P13569, DEL508-508); test: F508del-CFTR cell surface expression (corrector activity), DiscoveRx ß-galactosidase complementation chemiluminescence assay in recombinant U2OS cell line; details: for EC50: EC50, F508del-CFTR cell surface expression; for Emax: U2OS;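 on all read-outs here: U2OS cells co-expressing ProLink-tagged F508del-CFTR and a membrane-anchored enzyme acceptor, where more surface CFTR restores β-galactosidase activity measured by chemiluminescence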
Sequence of human F508del-CFTR (P13569 with tags, fused parts or gaps DEL508-508): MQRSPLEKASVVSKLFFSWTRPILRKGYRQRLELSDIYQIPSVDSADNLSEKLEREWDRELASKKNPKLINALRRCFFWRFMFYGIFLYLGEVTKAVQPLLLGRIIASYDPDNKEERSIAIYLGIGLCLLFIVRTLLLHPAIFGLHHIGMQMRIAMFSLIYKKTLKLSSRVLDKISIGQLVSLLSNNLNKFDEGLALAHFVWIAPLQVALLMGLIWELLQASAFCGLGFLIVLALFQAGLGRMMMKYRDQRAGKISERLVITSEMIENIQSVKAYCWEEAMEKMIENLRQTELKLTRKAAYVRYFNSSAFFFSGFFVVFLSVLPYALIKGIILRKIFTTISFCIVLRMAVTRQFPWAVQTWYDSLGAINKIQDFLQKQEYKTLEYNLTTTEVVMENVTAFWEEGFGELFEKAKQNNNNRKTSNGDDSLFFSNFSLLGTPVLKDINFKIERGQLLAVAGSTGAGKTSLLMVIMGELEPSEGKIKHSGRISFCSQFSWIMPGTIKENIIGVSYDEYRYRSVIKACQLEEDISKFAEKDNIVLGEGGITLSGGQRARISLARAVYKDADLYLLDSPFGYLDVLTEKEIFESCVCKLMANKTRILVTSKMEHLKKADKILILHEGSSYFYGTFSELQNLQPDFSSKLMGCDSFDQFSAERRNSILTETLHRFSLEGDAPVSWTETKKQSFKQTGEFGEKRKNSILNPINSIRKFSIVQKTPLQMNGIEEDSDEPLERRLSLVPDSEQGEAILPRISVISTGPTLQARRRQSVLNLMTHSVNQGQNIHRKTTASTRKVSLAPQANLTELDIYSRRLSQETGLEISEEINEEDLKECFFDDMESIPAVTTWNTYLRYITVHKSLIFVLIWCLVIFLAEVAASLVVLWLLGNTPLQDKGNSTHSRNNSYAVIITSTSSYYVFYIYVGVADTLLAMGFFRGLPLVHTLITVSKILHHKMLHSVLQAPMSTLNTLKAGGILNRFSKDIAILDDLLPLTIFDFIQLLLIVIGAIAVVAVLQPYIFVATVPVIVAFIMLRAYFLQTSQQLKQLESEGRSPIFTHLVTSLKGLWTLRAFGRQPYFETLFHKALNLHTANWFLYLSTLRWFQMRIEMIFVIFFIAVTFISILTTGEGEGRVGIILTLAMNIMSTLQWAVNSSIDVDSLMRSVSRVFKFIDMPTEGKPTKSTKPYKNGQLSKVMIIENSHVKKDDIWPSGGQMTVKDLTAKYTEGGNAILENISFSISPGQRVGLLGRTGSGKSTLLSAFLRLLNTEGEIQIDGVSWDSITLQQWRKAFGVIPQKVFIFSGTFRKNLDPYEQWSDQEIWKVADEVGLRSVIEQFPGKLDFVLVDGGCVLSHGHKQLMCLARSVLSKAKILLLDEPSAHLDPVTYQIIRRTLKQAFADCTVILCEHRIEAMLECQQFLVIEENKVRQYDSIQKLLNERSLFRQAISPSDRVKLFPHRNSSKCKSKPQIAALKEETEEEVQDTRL

[5] = U2OS cells, 16h compound incubation, geomean of several measurements
[6] = in relation to the Emax of the corrector lumacaftor (=100%), U2OS cells, 16h compound incubation, arithmetic mean

| Compound | EC50 [4, 5] [nM] | Emax [4, 6] [%] | other results |
| --- | --- | --- | --- |
| CC(C)C[C@@H](C(=O)N1CCCC[C@@H]1C(=O)N[C@@H](COc1cnc2ccccc2c1C(=O)N[C@@H](CC(=O)OC(C)(C)C)C(=O)OCc1ccccc1)Cc1ccccc1)N(C)C(=O)OC(C)(C)C |  |  | ring closure, isolated yield [1]: 58% |
| CC(C)C[C@H]1C(=O)N(CCC(C)(C)C)CC(=O)N[C@H](Cc2ccccc2)COc2cc3c(cc2C(=O)N[C@H](C(=O)O)CC(=O)N1C)OCO3 |  |  | ring closure, yield of all isomers ([2]; from CN[C@@H](CC(C)C)C(=O)N(CCC(C)(C)C)CC(=O)N[C@@H](COc1cc2c(cc1C(=O)N[C@@H](CC(=O)O)C(=O)O)OCO2)Cc1ccccc1, pentafluorophenyl diphenylphosphinate (FDPP), DMF/DCM, 67.5 mM, 5.0 h, 11 steps): 26% |
| CC(C)C[C@H]1C(=O)N(C[C@H]2COc3ccccc3C2)CC(=O)N[C@H](Cc2ccccc2)COc2ccc3ccccc3c2C(=O)N[C@H](C(=O)NCCc2ccc3c(c2)OCO3)CC(=O)N1C |  |  | ring closure, yield after HPLC ([3]; from CN[C@@H](CC(C)C)C(=O)N(CC(=O)N[C@@H](COc1ccc2ccccc2c1C(=O)N[C@@H](CC(=O)O)C(=O)NCCc1ccc2c(c1)OCO2)Cc1ccccc1)C[C@H]1COc2ccccc2C1, HATU/DIEA, DMF, 82.0 mM, 25.0 °C): 97% |
| COc1cc2c(cc1OC)C(=O)N[C@H](C(=O)OCc1ccccc1)CC(=O)N(C)[C@@H](CC1CC1)C(=O)N(CCC1CCCCC1)CC(=O)N[C@H](Cc1ccccc1)CO2 |  |  | ring closure, yield after HPLC ([3]; from CN[C@@H](CC1CC1)C(=O)N(CCC1CCCCC1)CC(=O)N[C@@H](COc1cc(OC)c(OC)cc1C(=O)N[C@@H](CC(=O)O)C(=O)OCc1ccccc1)Cc1ccccc1, FDPP, DCM, 50.0 °C): 13%; ring closure, yield of all isomers ([2]; from CN[C@@H](CC1CC1)C(=O)N(CCC1CCCCC1)CC(=O)N[C@@H](COc1cc(OC)c(OC)cc1C(=O)N[C@@H](CC(=O)O)C(=O)OCc1ccccc1)Cc1ccccc1, FDPP, DCM, 50.0 °C, 12.0 h): 13% |
| COc1nccc2c1C(=O)N[C@H](C(=O)NCCc1nc(C3CC3)no1)CC(=O)N(C)[C@@H](CC(C)C)C(=O)N(C)C(COCc1ccccc1)C(=O)N[C@H](Cc1ccccc1)CO2 (some centres unmarked) |  |  | ring closure, yield after HPLC ([3]; from CN[C@@H](CC(C)C)C(=O)N(C)C(COCc1ccccc1)C(=O)N[C@@H](COc1ccnc(OC)c1C(=O)N[C@@H](CC(=O)O)C(=O)NCCc1nc(C2CC2)no1)Cc1ccccc1, HATU/DIEA, DMF, 60.0 mM): 82% |
| COc1cccc(CCNC(=O)[C@@H]2CC(=O)N(C)[C@@H](CC(C)C)C(=O)N(C)[C@H](COCc3ccccc3)C(=O)N[C@H](Cc3ccccc3)COc3ccc4ccccc4c3C(=O)N2)c1 [Example 713, (3S,7S,10R,13R)-13-benzyl-10-((benzyloxy)methyl)-7-isobutyl-N-(3-methoxyphenethyl)-6,9-dimethyl-1,5,8,11-tetraoxo-1,2,3,4,5,6,7,8,9,10,11,12,13,14-tetradecahydronaphtho[1,2-p][1]oxa[4,7,10,14]tetraazacycloheptadecine-3-carboxamide] |  |  | ring closure, yield after HPLC ([3]; from CN[C@@H](CC(C)C)C(=O)N(C)[C@H](COCc1ccccc1)C(=O)N[C@@H](COc1ccc2ccccc2c1C(=O)N[C@@H](CC(=O)O)C(=O)NCCc1cccc(OC)c1)Cc1ccccc1, HATU/DIEA, DMF, 41.0 mM, 25.0 °C): 82%; EC50 ([4]; U2OS cells, 16h compound incubation, geomean values): 31 nM; Emax ([4]; in relation to Emax of corrector lumacaftor (=100%), arithmetic mean values): 432% |
| COc1cc(CCNC(=O)[C@@H]2CC(=O)N(C)[C@@H](CC(C)C)C(=O)N(C)[C@H](CC3CC3)C(=O)N[C@H](Cc3ccccc3)COc3cc(C)nc(OC)c3C(=O)N2)on1 [Example 979, (3R,6R,9S,13S)-3-benzyl-6-(cyclopropylmethyl)-9-isobutyl-16-methoxy-N-(2-(3-methoxyisoxazol-5-yl)ethyl)-7,10,18-trimethyl-5,8,11,15-tetraoxo-2,3,4,5,6,7,8,9,10,11,12,13,14,15-tetradecahydropyrido[3,4-p][1]oxa[4,7,10,14]tetraazacycloheptadecine-13-carboxamide] | 209 | 394 |  |
| COc1cc(CCNC(=O)[C@@H]2CC(=O)N(C)[C@@H](CC(C)C)C(=O)N(C)[C@H](CC3CCC3)C(=O)N[C@H](Cc3ccccc3)COc3cc(C)nc(OC)c3C(=O)N2)on1 [Example 980, (3R,6R,9S,13S)-3-benzyl-6-(cyclobutylmethyl)-9-isobutyl-16-methoxy-N-(2-(3-methoxyisoxazol-5-yl)ethyl)-7,10,18-trimethyl-5,8,11,15-tetraoxo-2,3,4,5,6,7,8,9,10,11,12,13,14,15-tetradecahydropyrido[3,4-p][1]oxa[4,7,10,14]tetraazacycloheptadecine-13-carboxamide] | 53 | 435 |  |
| COc1cc(CCNC(=O)[C@@H]2CC(=O)N(C)[C@@H](CC(C)C)C(=O)N(C)[C@H](Cc3nc(C(F)(F)F)no3)C(=O)N[C@H](Cc3ccccc3)COc3c[n+]([O-])c4ccc(F)cc4c3C(=O)N2)on1 [Example 981, (3S,7S,10R,13R)-13-benzyl-20-fluoro-7-isobutyl-3-((2-(3-methoxyisoxazol-5-yl)ethyl)carbamoyl)-6,9-dimethyl-1,5,8,11-tetraoxo-10-((3-(trifluoromethyl)-1,2,4-oxadiazol-5-yl)methyl)-1,2,3,4,5,6,7,8,9,10,11,12,13,14-tetradecahydro-[1]oxa[4,7,10,14]tetraazacycloheptadecino[17,16-c]quinoline 17-oxide] | 133 | 448 |  |
| COc1cc(CCNC(=O)[C@@H]2CC(=O)N(C)[C@@H](CC(C)C)C(=O)N(C)[C@H](Cc3nc(C(F)(F)F)no3)C(=O)N[C@H](Cc3ccccc3)COc3cc(C)c4c(ccc[n+]4[O-])c3C(=O)N2)on1 [Example 982, (3S,7S,10R,13R)-13-benzyl-7-isobutyl-3-((2-(3-methoxyisoxazol-5-yl)ethyl)carbamoyl)-6,9,17-trimethyl-1,5,8,11-tetraoxo-10-((3-(trifluoromethyl)-1,2,4-oxadiazol-5-yl)methyl)-1,2,3,4,5,6,7,8,9,10,11,12,13,14-tetradecahydro-[1]oxa[4,7,10,14]tetraazacycloheptadecino[16,17-f]quinoline 18-oxide] | 236 | 530 |  |
| COc1noc(CCNC(=O)[C@@H]2CC(=O)N(C)[C@@H](CC(C)C)C(=O)N(C)[C@H](Cc3nc(C(F)(F)F)no3)C(=O)N[C@H](Cc3ccccc3)COc3ccc4c(cc(F)c[n+]4[O-])c3C(=O)N2)n1 [Example 983, (3S,7S,10R,13R)-13-benzyl-20-fluoro-7-isobutyl-3-((2-(3-methoxy-1,2,4-oxadiazol-5-yl)ethyl)carbamoyl)-6,9-dimethyl-1,5,8,11-tetraoxo-10-((3-(trifluoromethyl)-1,2,4-oxadiazol-5-yl)methyl)-1,2,3,4,5,6,7,8,9,10,11,12,13,14-tetradecahydro-[1]oxa[4,7,10,14]tetraazacycloheptadecino[16,17-f]quinoline 18-oxide] | 270 | 506 |  |
| (7R,13S,17S)-7-Benzyl-11-(3,3-dimethylbutyl)-13-isobutyl-14-methyl-9,12,15,19-tetraoxo-6,7,8,9,10,11,12,13,14,15,16,17,18,19-tetradecahydro-[1,3]dioxolo[4′,5′:4,5]benzo[1,2-p][1]oxa[4,7,10,14]tetraazacycloheptadecine-17-carboxylic acid |  |  | ring closure, yield after HPLC ([3]; FDPP, DMF/DCM, resin, 67.5 mM, with chain assembly): 26% |
